Measurements taken from patent US20120232046A1, “METHOD AND KIT FOR REDUCING THE SYMPTOMS OF PERIPHERAL VASCULAR DISEASE” (Dimera Incorporated, priority 2003, published 2012).

How the values were obtained:
Format in all cases: cell-based, rhesus monkeys
[1] = system: isolated peripheral vascular muscle cells (VMC) from large arteries of the foreleg; assay: Averaged PKC signals in nicotine-stimulated VMC; conditions: VMC pre-treated with wash of 4 ng/ml hormone, 10 μM nicotine; for peripheral-to-central PKC ratio: versus control; for change of PKC loci or intensity after nicotine stimulation: versus control values
Description: (§1) Single VMCs from large arteries of the foreleg of adult rhesus monkeys are isolated and studied both as freshly dispersed and as primary cultures. The short-term primary cultured cells (never passaged) maintain the characteristics of the source tissue for 2 to 3 weeks, including contraction, relaxation, receptors, and membrane electrical properties. VMCs are dissociated with collagenase and protease enzymes in a potassium glutamate solution (KG) that prevents loading with Na^+, Ca^2′, or Cl^− and results in a high proportion of viable, contracting cells. See, Self, D. A., et al., J. Vasc. Res. 31:359-366 (1994); and Rusch., N. J., et al., Physiology and Pathophysiology of the Heart, 999-1010 (1995), each of which is incorporated herein by reference. The cells prepared for culture are seeded at low density in cardiovascular culture solution for mammals, fifth generation (CV5M) on glass coverslips to facilitate selection of individual cells. VMCs are used for studies 7 to 14 days after attaching to coverslips.
(§2) Freshly dispersed or primary cultured VMCs on glass coverslips are placed in a chamber of laminar flow design and observed with a high numerical aperture water immersion objective. Ionic solution for mammals version 2 (ISM2) is continuously pumped through the chamber (at 1 ml/minute) to provide continuous equilibration and washout of drugs. After a 15 minutes equilibration period, VMC are loaded for 15 minutes at room temperature with 3 μM fluo 3 (Molecular Probes, Inc.) for sensing Ca^2+ and for 10 minutes with 30-100 nM hypericin (LC Laboratories) for reporting PKC. Individual VMC are stimulated by adding 20 μl of 10 μM nicotine over the individual cell. After 15 seconds under no-flow conditions, continuous flow of ISM2 was reinstated and a chamber volume of approximately 300 μl was maintained. Fluorescent images are taken at 1, 2, 5, 10, 15, 20 and 30 minutes after stimulation for Ca^2+ and at 3, 4, 9, 16, 21 and 31 minutes for PKC to evaluate subcellular distribution of these signals, and to determine VMC contraction.
(§3) ISM2 contains (in mM): 100 NaCl, 4 NaHCO3, 0.5 NaH2PO4, 4.7 KCl, 1.8 CaCl2, 0.41 […], 50 HEPES (pH 7.37), and 5.5 dextrose; KG solution contains (in mM); 140 K-glutamate, 16 NaHCO3, 0.5 NaH2PO4, 30 HEPES, and 16.5 dextrose at pH 7.3. CV5M contains: 4.0 mM L-glutamine, 10 μg/ml ciprofloxacin (Miles Pentex/Bayer Corporation), 50 mM HEPES (pH 7.3), and 16 mM NaHCO3 dissolved in 85% MEM-Earle's salts and 15% horse serum. Phenol red, known to have estrogenic activity, is omitted from all solutions.
One group of cells is pre-treated with a wash of 4 ng/ml of progesterone before stimulation with nicotine. A second group of cells is pre-treated with a wash of 4 ng/ml testosterone before stimulation. […]

[2] = system: isolated peripheral vascular muscle cells (VMC) from large arteries of the foreleg; assay: Averaged contractions (cell width) of nicotine-stimulated VMC; conditions: primary cultured VMC pre-treated with wash of 4 ng/ml hormone, 10 μM nicotine; versus 0-min controls
Description: as §1
Freshly dispersed or primary cultured VMCs on glass coverslips are placed in a chamber of laminar flow design and observed with a high numerical aperture water immersion objective. […]
Normalized changes in cell widths from primary cultured VMC is determined.

[3] = system: isolated peripheral vascular muscle cells (VMC) from large arteries of the foreleg; assay: Averaged Ca2+ signals in nicotine-stimulated VMC; conditions: VMC pre-treated with wash of 4 ng/ml hormone; for decrease in peripheral-to-central Ca2+ localization ratio / peak of Ca2+ increase after nicotine stimulation: 10 μM nicotine; for peak of Ca2+ increase after nicotine stimulation: versus non-treatment group; for whole cell Ca2+ response to nicotine stimulation: stimulated with 10 μM nicotine
Description: as §1, §2, §3
One group of cells is pre-treated with a wash of 4 ng/ml of progesterone before stimulation with nicotine. A second group of cells is pre-treated with a wash of 4 ng/ml testosterone before stimulation. A third group of cells, the “non-treatment group”, is pre-treated with a wash of normal saline before stimulation. A fourth group of cells, which forms the control group, is pre-treated with a wash of normal saline and followed by “stimulation” with normal saline.
Normalized (per pixel) changes in intracellular Ca^2+ levels are expressed as averages over whole VMC and as peripheral-to-central ratios. […] The ratio decreases because of Ca^2+ release from intracellular stores.

| Structure (SMILES) | peripheral-to-central PKC ratio [1] | change of PKC loci or intensity after nicotine stimulation [1] | VMC contractions (central cell widening) [2] | decrease in peripheral-to-central Ca2+ localization ratio [3] | peak of Ca2+ increase after nicotine stimulation [3] | whole cell Ca2+ response to nicotine stimulation [3] |
| --- | --- | --- | --- | --- | --- | --- |
| CC(=O)[C@H]1CC[C@H]2[C@@H]3CCC4=CC(=O)CC[C@]4(C)[C@H]3CC[C@]12C [progesterone] | never significantly different from control | fails to change PKC loci or intensity significantly from control values | significantly different from 0-min controls only in the first few minutes following stimulation | too small to be significant | smaller peak than in the non-treatment group | only transiently stimulated by nicotine |
| C[C@]12CC[C@H]3[C@@H](CCC4=CC(=O)CC[C@@]43C)[C@@H]1CC[C@@H]2O [testosterone] | never significantly different from control | fails to change PKC loci or intensity significantly from control values | significantly different from 0-min controls only in the first few minutes following stimulation | too small to be significant | smaller peak than in the non-treatment group | only transiently stimulated by nicotine |
